From patent publication US20200216416A1, “QUINOLINE COMPOUNDS AS INHIBITORS OF TAM AND MET KINASES” (Array BioPharma Inc., priority 2019, published 2020)
Where two headings read alike, the source gives them in different places.

Molecular target: T1, MDR1 (P-gp) (Homo sapiens, UniProt P08183)
T1 construct: expressed in transfected cells; host or cells: LLC-PK1
Assay: MDR1 LLC-PK1 permeability assay
Format: in vitro ADME
Details: pig, MDR1 transfected LLC-PK1 cells; for Papp at 2 h, 1 μM: permeability coefficient (Papp)
Experimental: MDR1 transfected LLC-PK1 cells were cultured and plated according to manufacturer's recommendations with the exception that the passage media contained only 2% fetal bovine serum to extend passage time out to seven days.
Both positive and negative controls were used to assess functionality of P-gp efflux in the assay. Stock solutions for assay controls and the test article were prepared in DMSO for final test concentrations of 10 and 1 μM, respectively. Final organic concentration in the assay was 1%. All dosing solutions contained 10 μM lucifer yellow to monitor LLC-PK1 cell monolayer integrity.
For the apical to basolateral determination (A to B), 75 μL of the test article in transport buffer were added to the apical side of the individual transwells and 250 μL of basolateral media, without compound or lucifer yellow, were added to each well. For the basolateral to apical determination (B to A), 250 μL of test article in transport buffer were added to each well and 75 μL transport buffer, without compound or lucifer yellow, were added to each transwell. All tests were performed in triplicate, and each compound was tested for both apical to basolateral and basolateral to apical transport. The plates were incubated for 2 hours on a Lab-Line Instruments Titer Orbital Shaker (VWR, West Chester, Pa.) at 50 rpm and 37° C. with 5% CO2. All culture plates were removed from the incubator and 50 μL of media were removed from the apical and basolateral portion of each well and added to 150 μL of 1 μM labetalol in 2:1 acetonitrile (acetonitrile): H2O, v/v.
The plates were read using a Molecular Devices (Sunnyvale, Calif.) Gemini Fluorometer to evaluate the lucifer yellow concentrations at excitation/emission wavelengths of 425/535 nm. These values were accepted when found to be below 2% for apical to basolateral and 5% basolateral to apical flux across the MDR1-transfected LLC-PK1-transfected cell monolayers. The plates were sealed and the contents of each well analyzed by LC-MS/MS. The compound concentrations were determined from the ratio of the peak areas of the compound to the internal standard (labetalol) in comparison to the dosing solution.
The LC-MS/MS system was comprised of an HTS-PAL autosampler (Leap Technologies, Carrboro, N.C.), an HP1200 HPLC (Agilent, Palo Alto, Calif.), and a MDS Sciex 4000 Q Trap system (Applied Biosystems, Foster City, Calif.). […] The total run time, including re-equilibration, for a single injection was 1.2 minutes. Mass spectrometric detection of the analytes was accomplished using the ion spray positive mode. Analyte responses were measured by multiple reaction monitoring (MRM) of transitions unique to each compound (the protonated precursor ion and selected product ions for each test article and m/z 329 to m/z 162 for labetalol, the internal standard).
The permeability coefficient (Papp) is calculated from the following equation: […]
where Cd, V, t and C0 are the detected concentration (μM), the volume on the dosing side (mL), the incubation time (s) and the initial dosing concentration (μM), respectively. The calculations for Papp were made for each replicate and then averaged. In this assay, a compound is defined has having high permeability if the permeability is greater than 8×10^−6 cm/sec, a compound is defined has having medium permeability if the permeability is from 2×10^−6 cm/sec to 8×10^−6 cm/sec, and a compound is defined has having low permeability if the permeability is less than 2×10^−6 cm/sec.
An efflux ratio was calculated from the mean apical to basolateral (A-B) Papp data and basolateral to apical (B-A) Papp data:
Efflux ratio=Papp(B−A)/Papp(A−B)

[1] = LLC-PK1, efflux ratio = Papp(B-A)/Papp(A-B), read-out: MDR1 Pe Ratio
[2] = LLC-PK1, Papp(B−A)/Papp(A−B), test article 1 μM, 2 hours, 37° C., read-out: Efflux ratio

T1 sequence (P08183 whole entry): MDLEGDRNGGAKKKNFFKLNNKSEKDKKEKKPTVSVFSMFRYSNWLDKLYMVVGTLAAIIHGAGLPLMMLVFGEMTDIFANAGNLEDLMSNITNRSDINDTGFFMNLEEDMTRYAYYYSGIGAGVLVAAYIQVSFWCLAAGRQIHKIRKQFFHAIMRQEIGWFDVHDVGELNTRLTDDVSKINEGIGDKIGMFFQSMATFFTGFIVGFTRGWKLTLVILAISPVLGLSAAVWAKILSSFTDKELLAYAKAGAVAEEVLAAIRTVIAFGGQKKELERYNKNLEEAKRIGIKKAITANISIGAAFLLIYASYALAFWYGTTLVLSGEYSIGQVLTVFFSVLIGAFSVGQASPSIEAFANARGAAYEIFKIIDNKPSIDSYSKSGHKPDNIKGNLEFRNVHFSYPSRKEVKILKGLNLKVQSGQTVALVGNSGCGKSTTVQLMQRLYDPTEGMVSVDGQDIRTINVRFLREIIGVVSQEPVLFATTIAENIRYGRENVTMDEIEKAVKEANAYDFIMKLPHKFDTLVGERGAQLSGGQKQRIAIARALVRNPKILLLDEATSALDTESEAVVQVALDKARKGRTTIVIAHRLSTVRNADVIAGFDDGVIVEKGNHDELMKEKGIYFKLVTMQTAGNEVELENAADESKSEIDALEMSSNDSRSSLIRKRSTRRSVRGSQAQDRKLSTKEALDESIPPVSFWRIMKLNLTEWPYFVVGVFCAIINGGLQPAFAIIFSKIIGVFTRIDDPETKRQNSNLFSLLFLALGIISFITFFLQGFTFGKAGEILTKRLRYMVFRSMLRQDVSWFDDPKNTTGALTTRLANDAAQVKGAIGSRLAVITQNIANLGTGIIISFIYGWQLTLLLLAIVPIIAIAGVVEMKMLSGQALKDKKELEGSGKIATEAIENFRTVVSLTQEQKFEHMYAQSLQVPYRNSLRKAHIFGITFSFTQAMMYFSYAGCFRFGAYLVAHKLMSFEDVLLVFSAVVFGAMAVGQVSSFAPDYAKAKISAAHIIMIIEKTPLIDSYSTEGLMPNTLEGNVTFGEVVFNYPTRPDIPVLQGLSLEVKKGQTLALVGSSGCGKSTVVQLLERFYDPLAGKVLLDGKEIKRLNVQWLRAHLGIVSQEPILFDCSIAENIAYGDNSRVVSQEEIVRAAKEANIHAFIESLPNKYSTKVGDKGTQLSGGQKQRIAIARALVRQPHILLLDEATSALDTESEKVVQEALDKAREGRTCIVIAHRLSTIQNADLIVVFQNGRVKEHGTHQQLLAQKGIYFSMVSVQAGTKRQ

SMILES | efflux ratio at 2 h, 1 μM [1] | efflux ratio at 2 h, 1 μM [2] | Papp at 2 h, 1 μM [×10⁻⁶ cm/s]
COc1ccc2nccc(Oc3ccc(NC(=O)c4cn(CCN(C)C)cc(-c5ccc(F)cc5)c4=O)nc3)c2c1 [Example 47] | 9.3 | – | –
COc1cc2c(Oc3ccc(NC(=O)c4cn(C(C)C)c(C)c(-c5ccc(F)cc5)c4=O)nc3)ccnc2cc1F [Example 48, N-(5-((7-fluoro-6-methoxyquinolin-4yl)oxy)pyridin-2-yl)-5-(4-fluorophenyl)-1-isopropyl-6-methyl-4-oxo-1,4-dihydropyridine-3-carboxamide] | 1.6 | 3.5 | 15
CC(C)n1cc(C(=O)Nc2ccc(Oc3ccnc4cc(OC(F)(F)F)ccc34)cn2)c(=O)c(-c2ccc(F)cc2)c1 [Example 50, 5-(4-fluorophenyl)-1-isopropyl-4-oxo-N-(5-((7-(trifluoromethoxy)quinolin-4-yl)oxy)pyridin-2-yl)-1,4-dihydropyridine-3-carboxamide] | 4.7 | – | < 1
CCOc1ccc2nccc(Oc3ccc(NC(=O)c4cn(C(C)C)cc(-c5ccc(F)cc5)c4=O)nc3)c2c1 [Example 51, N-(5-((6-ethoxyquinolin-4-yl)oxy)pyridin-2-yl)-5-(4-fluorophenyl)-1-isopropyl-4-oxo-1,4-dihydropyridine-3-carboxamide] | 2 | 3.5 | 3
COc1cc2nc(C)cc(Oc3ccc(NC(=O)c4cn(C(C)C)cc(-c5ccc(F)cc5)c4=O)nc3)c2cc1OC [Example 53, N-(5-((6,7-dimethoxy-2-methylquinolin-4-yl)oxy)pyridin-2-yl)-5-(4-fluorophenyl)-1-isopropyl-4-oxo-1,4-dihydropyridine-3-carboxamide] | 3.4 | – | 5
COc1cc2nccc(Oc3cnc(NC(=O)c4cn(C(C)C)cc(-c5ccc(F)cc5)c4=O)nc3)c2cc1OC [Example 54, N-(5-((6,7-dimethoxyquinolin-4-yl)oxy)pyrimidin-2-yl)-5-(4-fluorophenyl)-1-isopropyl-4-oxo-1,4-dihydropyridine-3-carboxamide] | 114 | – | 12
COc1cc2nccc(Oc3cnc(NC(=O)c4cn(C(C)C)c(C)c(-c5ccc(F)cc5)c4=O)nc3)c2cc1OC [Example 55, N-(5-((6,7-dimethoxyquinolin-4-yl)oxy)pyrimidin-2-yl)-5-(4-fluorophenyl)-1-isopropyl-6-methyl-4-oxo-1,4-dihydropyridine-3-carboxamide] | 144 | – | 8

Results, then the compound that gave them:

efflux ratio at 2 h, 1 μM [1] | efflux ratio at 2 h, 1 μM [2] | Papp at 2 h, 1 μM [×10⁻⁶ cm/s] | SMILES
0.99 | 3.5 | 4 | COc1cc2c(Oc3ccc(NC(=O)c4cn(C(C)C)cc(-c5ccc(F)cc5)c4=O)nc3)ccnc2cc1F [Example 49, N-(5-((7-fluoro-6-methoxyquinolin-4yl)oxy)pyridin-2-yl)-5-(4-fluorophenyl)-1-isopropyl-4-oxo-1,4-dihydropyridine-3-carboxamide]
1.8 | 3.5 | 2 | CCOc1ccc2c(Oc3ccc(NC(=O)c4cn(C(C)C)cc(-c5ccc(F)cc5)c4=O)nc3)ccnc2c1 [Example 52, N-(5-((7-ethoxyquinolin-4-yl)oxy)pyridin-2-yl)-5-(4-fluorophenyl)-1-isopropyl-4-oxo-1,4-dihydropyridine-3-carboxamide]
20 | – | < 1 | COc1cc2c(Oc3ccc(NC(=O)c4cn(C(C)C)cc(-c5ccc(F)cc5)c4=O)nc3)ccnc2cc1OCCCN1CCOCC1 [Example 56, 5-(4-fluorophenyl)-1-isopropyl-N-(5-((6-methoxy-7-(3-morpholinopropoxy)quinolin-4-yl)oxy)pyridin-2-yl)-4-oxo-1,4-dihydropyridine-3-carboxamide]
